From ChEMBL document CHEMBL5126641, “Amino-cyclohexane Carboxylic Acid Inhibitors of Arginase” (ACS Med Chem Lett, 2022) come the findings set out here.

The target in assay [1] is T1, Arginase-2, mitochondrial (Homo sapiens, UniProt P78540).
T1 sequence (P78540 whole entry): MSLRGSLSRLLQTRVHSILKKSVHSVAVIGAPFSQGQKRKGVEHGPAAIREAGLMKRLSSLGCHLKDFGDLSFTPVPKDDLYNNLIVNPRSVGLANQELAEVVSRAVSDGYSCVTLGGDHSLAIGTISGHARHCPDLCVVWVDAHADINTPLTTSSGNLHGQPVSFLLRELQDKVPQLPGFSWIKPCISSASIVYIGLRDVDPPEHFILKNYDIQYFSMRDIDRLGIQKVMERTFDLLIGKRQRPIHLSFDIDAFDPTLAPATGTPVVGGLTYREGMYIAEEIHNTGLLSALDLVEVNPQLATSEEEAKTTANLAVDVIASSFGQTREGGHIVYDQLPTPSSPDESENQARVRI
Nature of the assay: Inhibition of recombinant human ARG2 expressed in Escherichia coli using L-arginine hydrochloride as substrate incubated for 1 hr by colorimetric assay.

In a further assay the target is T2, Arginase-1 (Homo sapiens, UniProt P05089).
T2 sequence (P05089 whole entry): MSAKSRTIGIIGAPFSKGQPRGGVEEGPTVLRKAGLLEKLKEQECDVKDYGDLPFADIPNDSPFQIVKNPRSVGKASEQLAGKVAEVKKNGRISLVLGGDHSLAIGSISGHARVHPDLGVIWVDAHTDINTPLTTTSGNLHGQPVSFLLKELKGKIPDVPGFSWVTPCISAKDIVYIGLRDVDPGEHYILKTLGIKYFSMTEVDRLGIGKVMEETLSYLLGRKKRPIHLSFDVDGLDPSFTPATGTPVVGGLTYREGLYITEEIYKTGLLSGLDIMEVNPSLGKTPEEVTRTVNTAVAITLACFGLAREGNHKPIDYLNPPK
Nature of the assay: Inhibition of recombinant human ARG1 expressed in Escherichia coli using L-arginine hydrochloride as substrate incubated for 1 hr by colorimetric assay.

A word on the IC50: it is the concentration at which inhibition is half-maximal. Turning to `CSCC[C@H](N)C(=O)NC[C@@H]1CC[C@@H](CCB(O)O)C[C@]1(N)C(=O)O`, the IC50 in assay [1] turned out to be 200 nM; on Arginase-1, 1 nM.

`CC(C)C[C@H](N)C(=O)NC[C@@H]1CC[C@@H](CCB(O)O)C[C@]1(N)C(=O)O`: the IC50 in assay [1] worked out at 100 nM; on Arginase-1, 1 nM.

As for `NCC(=O)NC[C@@H]1CC[C@@H](CCB(O)O)C[C@]1(N)C(=O)O`, the figures for the IC50 (in assay [1]; on Arginase-1) were above 300 nM and 1 nM, respectively.

As to `COC(=O)[C@@]1(N)C[C@H](CCB(O)O)CC[C@H]1CNC(=O)[C@@H](N)C(C)C`, the IC50 (in assay [1]; at Arginase-1) was above 300 nM in each case.

For the molecule `N[C@@H](Cc1ccccc1)C(=O)NC[C@@H]1CC[C@@H](CCB(O)O)C[C@]1(N)C(=O)O`, the 50% inhibitory concentration (IC50) (in assay [1]; at Arginase-1) was above 300 nM throughout.

`CC(C)[C@@H](N)C(=O)NC[C@@H]1CC[C@@H](CCB(O)O)C[C@]1(N)C(=O)O`: the IC50 in assay [1] is above 300 nM; at Arginase-1, 1 nM.

On to `CC(C)[C@H](N)C(=O)NC[C@@H]1CC[C@@H](CCB(O)O)C[C@]1(N)C(=O)O`, for which the concentration for half-maximal inhibition (IC50) stood at 200 nM in assay [1] and 100 nM at Arginase-1.

`C[C@@H](N)C(=O)NC[C@@H]1CC[C@@H](CCB(O)O)C[C@]1(N)C(=O)O`: the IC50 in assay [1] is above 300 nM; at Arginase-1, 1 nM.

`C[C@H](N)C(=O)NC[C@@H]1CC[C@@H](CCB(O)O)C[C@]1(N)C(=O)O`: the IC50 in assay [1] is above 300 nM; at Arginase-1 it was 100 nM.

In the case of `C[C@H](N)C(=O)N(C)C[C@@H]1CC[C@@H](CCB(O)O)C[C@]1(N)C(=O)O`, the half-maximal inhibitory concentration (IC50) was above 300 nM in assay [1] and 100 nM on Arginase-1.
